Reference: patent publication US20260137698A1, “CYCLIN-DEPENDENT KINASE 7 INHIBITORS” (JOINT STOCK COMPANY «BIOCAD», priority 2022, published 2026)
Like-named read-outs stand apart in the source and are kept apart here.

Columns and labels:
[1] = Passive membrane permeability through PAMPA artificial membrane, pH 7.4; assay type: in vitro ADME; conditions: pH 7.4, 10 μmol, 20 hours at room temperature, mean of multiple measurements, read-out: PAMPA passive permeability Pe
Summary of the method: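 Compound at 10 μmol in 0.01 M phosphate buffer pH 7.4 placed in donor wells over lecithin-phospholipid-impregnated PVDF filter, buffer in acceptor; 20 h at room temperature. Donor and acceptor levels measured by RP-HPLC-UV; Pe (cm/s) and membrane retention R (%) calculated.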

[2] = Microsomal stability in human liver microsomes (HLM); assay type: in vitro ADME; conditions: 1 μM test compound
[3] = Microsomal stability in rat liver microsomes (RLM); assay type: in vitro ADME; conditions: rat liver microsomes 0.5 mg/ml, 1 μM compound, NADPH
Experimental: (§1) The procedure for investigating the metabolism of selected compounds was carried out in microsomal fractions of the liver (of rats, mice, humans) in the presence of a phase I metabolism cofactor (NADPH).
(§2) The rate of enzymatic decomposition of the compound in liver microsomes in in vitro analysis was determined by keeping a reaction mixture comprising 0.5 mg/ml of pooled human, rat or mouse liver microsomes, 1 μM test compound, 1.5 mM […] (Carbosynth, UK, cat. no. NN108711101) and 1.5 mM magnesium chloride in 0.1 M sodium phosphate buffer (pH 7.4) in a solid-state thermostat at 37° C. (XenoTech, USA, order no. H2610, cat. no. R1000, cat. no. M1000). Incubation was carried out in three replicates.
(§3) To determine the stability of compounds under sample preparation conditions, an aliquot in two replicates with the test compound and a microsomal fraction devoid of the NADPH cofactor, which was incubated for 40 minutes at 37° C.
(§4) Reactions were stopped at 0, 10, 20, 30 and 40 min time points by way of adding an ice mixture of acetonitrile:methanol (3:1) comprising an internal standard.
(§5) Samples were then centrifuged to remove the precipitated protein, supernatants were analyzed using HPLC-MS/MS to determine in vitro clearance (CLint) of the compounds. The Agilent 6410 mass spectrometer (Agilent, USA) combined with the Agilent 1260 Infinity II HPLC liquid chromatograph (Agilent, USA) and a cooling autosampler controlled by MassHunter software (Agilent, USA) was used as an HPLC-MS/MS system. Chromatographic analysis was performed on a C18 reversed-phase HPLC column (Agilent, Waters or equivalent) in a gradient elution mode in a system of mobile phases: 0.1% formic acid in water/0.1% formic acid in acetonitrile, flow rate: 0.5 ml/min, column T=35° C. Mass spectrometric detection was performed with electrospray ionization in multiple reaction monitoring mode. Precursor ions, fragment ions and collision energies for each substance were selected experimentally.
(§6) A graph of dependence of the logarithmic ratio between substance's peak area and internal standard's peak area vs time was built. The dependent coefficient of this line corresponded to the elimination rate constant k, on the basis of which the in vitro clearance CLint was calculated:
(§7) Based on resulting in vitro clearance CLint values, the microsomal stability of the selected compounds for humans, rats and mice was concluded.

[4] = molecular target: CDK13/Cyclin K (Homo sapiens, UniProt Q14004); test: Inhibition of CDK13/Cyclin K kinase activity (ADP-Glo); assay type: biochemical
Experimental: Measurements were carried out in a 5 μl reaction volume using a 384-well plate (Corning Inc., order no. 4513). The analyzed substances were titrated from 50 μM in increments of 4 at 11 concentration points in a normal strength kinase buffer A (Thermo Fisher Scientific Inc, cat. no. PV3189) supplemented with DTT (Sigma, orde. no. 646563-10X.5ML) and prepared with water (Panreac, order no. 701074). Kinase was diluted in an analogous buffer, mixed with test compounds in plate wells and preincubated for 10 minutes at 25° C. Following incubation, a mixture of reaction substrate (CDKtide (SignalChem, order no. C06-58) or Histone H1 (SignalChem, order no. H10-54N) or PDKtide (SignalChem, order no. P10-58) and ATP (SignalChem, order no. V915B) prepared on a normal strength kinase buffer A was added. 1% solution of dimethyl sulfoxide (DMSO) (Sigma-Aldrich, order no. D2438) in the reaction volume was used as a negative control. The final concentrations of all reaction components are shown in Table 5. The plate was centrifuged at 400 rcf (Eppendorf, 5804 R) for 1 minute and incubated for 40-60 minutes at 25° C. The amount of ATP consumed in the kinase reaction was then measured using the ADP-Glo™ detection system. Luminescence signal was measured using Spark 20M tablet multifunction reader (Tecan Group Ltd, Switzerland). IC50 value was calculated using Magellan 7.2 (Tecan Group Ltd, Switzerland) by approximating experimental points by four-parameter model with the optimization by Levenberg-Marquardt:
[formula] • where A is the upper asymptote; D is the lower asymptote; C is IC50, half-maximal inhibitory concentration of kinase, nM; B is the curvature (slope).

[5] = Microsomal stability in mouse liver microsomes (MLM); assay type: in vitro ADME; conditions: mouse liver microsomes 0.5 mg/ml, 1 μM compound, NADPH
Experimental: as §1, §2, §3, §4, §5, §6, §7

[6] = mean of multiple measurement series, ATP 10 μM, read-out: CDK13/Cyclin K IC50
[7] = mean value from several measurements, read-out: IC50 CDK13/Cyclin K

Chain of CDK13/Cyclin K (Q14004 whole entry): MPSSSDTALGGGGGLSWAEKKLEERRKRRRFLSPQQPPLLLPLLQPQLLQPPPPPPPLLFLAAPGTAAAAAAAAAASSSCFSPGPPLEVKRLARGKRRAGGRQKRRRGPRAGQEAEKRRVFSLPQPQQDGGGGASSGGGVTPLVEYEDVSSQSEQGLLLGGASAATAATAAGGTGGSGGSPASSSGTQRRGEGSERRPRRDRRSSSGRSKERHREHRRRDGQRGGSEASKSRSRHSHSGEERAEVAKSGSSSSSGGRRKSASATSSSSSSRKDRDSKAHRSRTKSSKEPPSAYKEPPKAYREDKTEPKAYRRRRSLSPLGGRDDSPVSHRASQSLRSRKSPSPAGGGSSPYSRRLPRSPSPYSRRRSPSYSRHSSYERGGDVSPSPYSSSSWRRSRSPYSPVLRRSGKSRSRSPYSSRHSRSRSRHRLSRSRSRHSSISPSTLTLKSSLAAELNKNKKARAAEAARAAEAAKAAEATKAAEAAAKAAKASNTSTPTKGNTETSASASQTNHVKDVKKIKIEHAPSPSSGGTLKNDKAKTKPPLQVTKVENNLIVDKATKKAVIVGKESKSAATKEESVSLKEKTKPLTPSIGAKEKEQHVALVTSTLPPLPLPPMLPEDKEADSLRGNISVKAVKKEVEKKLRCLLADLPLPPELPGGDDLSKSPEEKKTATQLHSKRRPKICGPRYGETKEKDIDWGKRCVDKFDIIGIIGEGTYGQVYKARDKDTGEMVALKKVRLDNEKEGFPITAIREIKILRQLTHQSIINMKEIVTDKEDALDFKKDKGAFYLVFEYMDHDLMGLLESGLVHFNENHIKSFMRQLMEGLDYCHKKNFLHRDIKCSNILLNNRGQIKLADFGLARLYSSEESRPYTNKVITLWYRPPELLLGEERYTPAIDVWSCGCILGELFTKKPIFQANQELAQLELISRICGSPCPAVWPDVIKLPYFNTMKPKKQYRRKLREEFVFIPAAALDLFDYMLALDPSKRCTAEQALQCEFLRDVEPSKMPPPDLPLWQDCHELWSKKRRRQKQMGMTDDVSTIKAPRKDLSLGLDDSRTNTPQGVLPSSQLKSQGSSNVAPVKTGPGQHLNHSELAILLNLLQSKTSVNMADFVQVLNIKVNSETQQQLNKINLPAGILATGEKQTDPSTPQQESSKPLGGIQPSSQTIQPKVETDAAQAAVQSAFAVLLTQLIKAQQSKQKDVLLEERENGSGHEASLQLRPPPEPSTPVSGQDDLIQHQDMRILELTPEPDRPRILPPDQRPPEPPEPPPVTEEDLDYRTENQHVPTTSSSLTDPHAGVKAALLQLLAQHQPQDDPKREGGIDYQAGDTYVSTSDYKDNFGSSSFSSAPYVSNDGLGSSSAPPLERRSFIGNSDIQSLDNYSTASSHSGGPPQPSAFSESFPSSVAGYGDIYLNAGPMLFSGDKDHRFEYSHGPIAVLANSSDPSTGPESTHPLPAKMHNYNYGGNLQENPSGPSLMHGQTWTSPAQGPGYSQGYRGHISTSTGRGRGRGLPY
Chain of CDK13/Cyclin K (O75909 whole entry partner): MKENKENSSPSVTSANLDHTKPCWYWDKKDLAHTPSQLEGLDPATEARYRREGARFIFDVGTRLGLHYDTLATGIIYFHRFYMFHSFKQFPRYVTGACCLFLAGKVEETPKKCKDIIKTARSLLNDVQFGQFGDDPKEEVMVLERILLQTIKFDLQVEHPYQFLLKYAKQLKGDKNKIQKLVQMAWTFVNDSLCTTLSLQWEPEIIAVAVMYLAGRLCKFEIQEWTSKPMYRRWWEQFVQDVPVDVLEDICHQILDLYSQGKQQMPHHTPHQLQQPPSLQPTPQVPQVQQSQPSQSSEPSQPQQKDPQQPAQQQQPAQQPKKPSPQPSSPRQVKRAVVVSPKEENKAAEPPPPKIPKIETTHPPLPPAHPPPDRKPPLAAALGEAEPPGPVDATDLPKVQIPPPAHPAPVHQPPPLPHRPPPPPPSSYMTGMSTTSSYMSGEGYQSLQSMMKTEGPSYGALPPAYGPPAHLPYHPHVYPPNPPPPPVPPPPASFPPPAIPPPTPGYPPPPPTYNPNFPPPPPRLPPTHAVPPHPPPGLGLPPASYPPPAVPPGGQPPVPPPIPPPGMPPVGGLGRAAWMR

| Compound | Papp at 20 h, 10 μmol [1] [×10⁻⁶ cm/s] | In vitro clearance CLint (HLM) [2] | RLM Clint [3] | IC50 [4, 6] [µM] | IC50 [4, 7] [µM] | MLM Clint [5] |
| --- | --- | --- | --- | --- | --- | --- |
| O=C1c2[nH]cc(-c3nc(N[C@H]4CCC5(CC5)NC4)ncc3C(F)(F)F)c2CCCN1C1CC1 [CDK7_1276, 3-(2-{[(6S)-4-azaspiro[2.5]octan-6-yl]amino}-5-(trifluoromethyl)py-rimidin-4-yl)-7-cyclopropyl-1H,4H,5H,6H,7H, 8H-pyrrolo[2,3-c]azepin-8-one] | 5 to 10 | B (50 μl/(min · mg of protein) > Clint > 20 μl/(min · mg of protein)) | B (50 μl/(min · mg of protein) > Clint > 20 μl/(min · mg of protein)) | 0.152 | 0.05 to 0.2 | B (50 μl/(min · mg of protein) > Clint > 20 μl/(min · mg of protein)) |
| CC(C)N1CCCc2c(-c3nc(N[C@H]4CCC5(CC5)NC4)ncc3C(F)(F)F)c[nH]c2C1=O [CDK7_1277, 3-(2-{[(6S)-4-azaspiro[2.5]octan-6-yl]amino}-5-(trifluoromethyl)py-rimidin-4-yl)-7-(propan-2-yl)-1H,4H,5H,6H,7H, 8H-pyrrolo[2,3-c]azepin-8-one] | 5 to 10 | B (50 μl/(min · mg of protein) > Clint > 20 μl/(min · mg of protein)) | B (50 μl/(min · mg of protein) > Clint > 20 μl/(min · mg of protein)) | 0.425 | > 0.2 | B (50 μl/(min · mg of protein) > Clint > 20 μl/(min · mg of protein)) |
